System: anaesthetized rats
Experiment: Hemodynamic assessment (arterial blood pressure) in anaesthetized rats
Assay type: in vivo, rat
Conditions: for Intrinsic effect on blood pressure: anaesthetized rats
Procedure: Male Sprague-Dawley rats, weighing 350-400 g, were anaesthetized by isoflurane inhalation delivered in 100% oxygen (1 l/min) from an Ohmeda Tec 4 anaesthetic vaporizer (Somatechnology, Inc., Bloomfield, Conn., USA). Anaesthesia was maintained by mask inhalation of isoflurane vaporized at concentrations of up to 3% in the induction phase, at 1.5% during acute surgical procedures and at 0.8-1.0% during experimental observations. […]. […] A period of stabilisation of 30 min was observed and the following experimental protocols were then performed and arterial blood pressure was evaluated. During isoflurane inhalation, no breathing complications or changes in blood pressure were observed. […].
In a preliminary study, individual rats received a single i.v. injection of hUII ranging from 1 to 30 nmol/kg. A dose-response curve, reflecting the effect of hUII on the change in blood pressure, was then determined.
In this set of experiments, five groups of rats were used. […] […]. Hemodynamic changes were continuously captured by the pressure probe over a period of 1 h. The maximum rise and the maximum drop in blood pressure was determined and analyzed using the PowerLab software (ADInstruments, Colorado Springs, Colo., USA).
In the control group, the rats received two doses of hUII (10 nmol/kg) with a 30 min interval between the first and second injection.

[1] = 1000 nmol/kg bolus, 30 min before hUII 10 nmol/kg

## CC(C)[C@H](NC(=O)[C@@H]1CSSC[C@H](NC(=O)[C@H](C)N)C(=O)N[C@@H](Cc2ccccc2)C(=O)N[C@@H](Cc2ccc(-c3ccccc3)cc2)C(=O)N[C@@H](CCCCN)C(=O)N[C@@H](Cc2ccc(O)cc2)C(=O)N1)C(=O)O [[Bip^4]URP, H-Ala-Cys-Phe-Bip-Lys-Tyr-Cys-Val-OH]
0.1 μmol/kg
  Effect on hUII hemodynamic profile: no effect
100 nmol/kg (0.1 μmol/kg) i.v.
  Intrinsic effect on blood pressure: No effect
100 nmol/kg (0.1 μmol/kg) i.v., listed as urocontrin
  Intrinsic effect on blood pressure: no detectable effect
1000 nmol/kg (1 μmol/kg) i.v.
  Intrinsic effect on blood pressure: hypotensive effect comparable with that of hUII
1000 nmol/kg (1 μmol/kg) i.v., listed as urocontrin
  Intrinsic effect on blood pressure: hypotension comparable with that of hUII
[1]
  Effect on hUII hypotensive action: significantly reduced
  Effect on hUII pressor effect: keeping intact
1000 nmol/kg bolus, 30 min before hUII 10 nmol/kg, listed as urocontrin
  Effect on hUII pressor effect: preserving
1000 nmol/kg, URP 10 nmol/kg
  Effect on biphasic response induced by URP: no effect
[Bip^4]URP 1000 nmol/kg 30 min before two hUII doses (10 nmol/kg, 30 min interval)
  Response to a second hUII injection after pre-treatment: complete absence of a response

Source: patent publication US9340575B2, “Agonists and antagonists of the urotensinergic system” (INSTITUT NATIONAL DE LA RECHERCHE SCIENTIFIQUE, priority 2011, dated 2016)
